Earlier results, collected in patent publication US11439618B2, “Compositions and methods for lowering triglycerides” (Amarin Pharmaceuticals Ireland Limited, priority 2009, dated 2022).

Conditions: previous data; standard deviation of 15%; cited from earlier work

CC/C=C\C/C=C\C/C=C\C/C=C\C/C=C\CCCC(=O)OCC [Ethyl-EPA, all-cis eicosa-5,8,11,14,17-pentaenoic acid ethyl ester]
Difference in percent change from baseline in fasting LDL-C between study drug and placebo: 2.2%
